Experimental data reported in US20260102407A1, “TREATMENT METHODS” (priority 2020, published 2026).

Legend:
HMEC-1 = assay: Endothelial network formation assay on Matrigel; type: cell-based, human
Method: Endothelial network formation assay. HMEC-1 (4×10^4 cells/well) in MCDB131 containing 1% FBS and compound (1 or 3 μM) or curcumin (1-40 μM) and 50 ng/ml FGF-2 were added to 96-well plates coated overnight at 4° C. with 100 μl of growth factor-reduced reconstituted basement membrane matrix (Matrigel, cat. 354230, Corning, NY). Network formation was observed over subsequent hours and photographed under 4× or 10× objective using an Olympus CKX41 microscope.

FosB = assay: Immunohistochemical staining of rat retina, FosB; type: in vivo; settings: lasered rat retinas
Description: Rat choroidal laser injury model. Male Brown Norway pigmented rats (8-14 week-old) were anesthetized by an intramuscular injection of Rompun® (xylazine)/Imalgene® (ketamine). Pupils were dilated by instillation of one drop of 0.5% tropicamide before laser burn. Six burns were created in both eyes on Day 0 by applying 170 mW of 532 nm laser light (Viridis laser, Quantel, France) on 75 μm spots around the optic nerve, between the main retinal vessel branches, for 0.1s, through the slit lamp and contact lens. Production of a bubble at the time of laser application confirmed the rupture of Bruch's membrane. […] After anaesthesia, 10% sodium fluorescein (250 μl/100 g body weight) was injected subcutaneously, and ocular fluorescence was recorded 10 min after dye injection. Fluorescein leakage was evaluated on Days 14 and 21 in the angiograms by two examiners masked to the study groups and graded for fluorescein intensity as follows: score 0: no leakage; 1: slightly stained; 2: moderately stained; 3: strongly stained.
Immunohistochemical staining of rat retina. […] IOD of positive staining (red chromogen) was assessed for CD31, VEGF-A165, pERK, FosB and VCAM-1 using Image-Pro Plus software (Cybernetics, Bethesda, MD). IOD in IPL and INL was quantified for CD31; OPL to OS for VEGF-A165; INL to ONL for pERK; GCL to OS for FosB; OLM for VCAM-1, using Image-Pro Plus. […]

Balb/c mice = assay: Collagen antibody-induced arthritis (footpad thickness, H&E, micro-CT, TRAP); type: in vivo, mouse; settings: CAIA mice
Method: Collagen antibody-induced arthritis. Arthritis was induced in female Balb/c mice (6-8 week-old) as previously described with a commercially obtained cocktail of 5 monoclonal antibodies to type II collagen at 2 mg/mouse (Chondrex, Inc. Redmond, WA) followed by LPS (50 μg/mouse) with or without BT2 (3 or 30 mg/kg mouse) in DMSO vehicle was administered i.p. on Day 3. Hind footpad thickness was measured on Day 9 using digital calipers. Mice were sacrificed on Day 14 and microCT scanning of hind limbs was performed.
Micro-CT scanning and analysis. Formalin-ethanol fixed hind limbs were micro-CT scanned prior to histology processing using a Siemens Inveon micro-CT scanner (Victoria, Australia). Data was acquired with the Inveon Acquisition Workplace at 16.84 μm pixel size, 360 projections, 4100 ms integration time, 80 keV photon energy and 140 μA current. 3D models were visualized and snap shots of the limbs acquired with the Inveon Research Workplace software. Data was quantified by binary score where 0=no bone destruction and 1=destruction was given to each individual limb.
Tartrate-resistant acid phosphatase (TRAP) staining. Osteoclasts were stained using TRAP kit (Cosmo Bio, Japan, cat. PMC-AK04F-COS). Sections were heated at 65° C. for 1 h prior dewaxing. Tissue sections were deparaffinised with 100% xylene and rehydrated with 100, 70 and 30% ethanol and rinsed with distilled water for 5 min. Sections were covered with TRAP staining solution containing 3 mg tartaric acid per 50 ml tartaric acid buffer. The sections were incubated at 37° C. for 1 h, then rinsed in distilled water 3 times to halt the reaction. Sections were counterstained with hematoxylin for 5s then washed in running water until clear then dried. Sections were dehydrated with xylene and air-dried then mounted with aqueous permanent mounting medium. Within the synovium on the medial aspect of each animal joint, 6 random areas photographed under 20× objective were selected in the blinded fashion. Numbers of osteoclasts were counted using NIH Image J. Alternatively TRAP staining was quantitated using IOD (Image-Pro Plus).

## CCOC(=O)Nc1ccc2c(c1)C(=O)N(CC)c1ccccc1O2 [BT2, (10-ethyl-11-oxo-10,11-dihydro-dibenzo[b,f][1,4]oxazepin-2-yl)-carbamic acid ethyl ester]
HMEC-1; 1 μM, after 4 h
  endothelial network formation: abolished network formation
HMEC-1; 3 μM, 1% FBS, 50 ng/ml FGF-2, 2, 4, 6 and 24 h
  endothelial network (tubule) formation on Matrigel: inhibited network formation
HMEC-1; after 4 h
  potency relative to curcumin in network formation assay: > 40 fold
FosB
  retinal FosB immunostaining: inhibited retinal FosB immunostaining
Balb/c mice; Day 14
  TRAP staining in the joints: reduced TRAP staining
  bone destruction (3D micro-CT of hind limbs): inhibits bone destruction
  inflammation (H&E staining): reduced by BT2
Balb/c mice; single administration 30 mg/kg i.p. Day 3, Day 9
  hind footpad thickness: inhibited
